Data reported in patent publication US10167261B2, “2-oxo-3,4-dihydroquinolin-6-yl sulphonamide CPDS and their use as plant growth regulators” (THE REGENTS OF THE UNIVERSITY OF CALIFORNIA, priority 2014, dated 2019).
Read-outs that look alike come from different tables or passages of the source.

How the values were obtained:
[1] = tested on: soybean plants (variety S20-G7); assay: Water use (WU) of soybean plants after foliar spray; assay type: in vivo; conditions: for Total % WU 0 to 2 DAA: cumulative; for change in vivo at 500 µM / change in vivo at 100 µM: Glycine max, vs negative control; for change in vivo at 500 µM / Total 0 to 2 DAA / change in vivo at 100 µM: foliar spray; for Total 0 to 2 DAA: cumulative WU vs negative control
Protocol: Chemicals were tested for their effect on reducing plant water use (WU) after being applied by foliar sprays onto soybean plants (variety S20-G7)—grown in controlled environment plant growth chambers. All chemicals were applied using an emulsifiable concentrate (EC) formulation that was diluted with water containing additional surfactant (EXTRAVON 1 g/20 L) to the indicated concentrations. Plant WU was assessed by multiple pot weighing processes before and after application of the chemicals at the indicated times (expressed in days after application (DAA)). The WU data before application was used to correct for differences in water use due to non-treatment effects (e.g. due to differences in plant size). The results are expressed compared to negative control treatment (water with EXTRAVON 1 g/20 L).
Application of the chemicals (0 DAA) takes place approximately between 8 to 9:30 a.m. […] The cumulative total WU (0-2 DAA) is calculated by summing the WU data mentioned above.

PYL2-HAB1 = PYL2-HAB1 (Arabidopsis thaliana (Mouse-ear cress), UniProt O80992); assay: PP2C activity assay, PYL2-HAB1; assay type: biochemical; conditions: 100 nM PP2C, 200 nM PYR/PYL protein, 4-nitrophenyl phosphate substrate; read-out: IC50 of inhibition of PYL2-HAB1
Sequence of PYL2-HAB1 (O80992 whole entry, looked up): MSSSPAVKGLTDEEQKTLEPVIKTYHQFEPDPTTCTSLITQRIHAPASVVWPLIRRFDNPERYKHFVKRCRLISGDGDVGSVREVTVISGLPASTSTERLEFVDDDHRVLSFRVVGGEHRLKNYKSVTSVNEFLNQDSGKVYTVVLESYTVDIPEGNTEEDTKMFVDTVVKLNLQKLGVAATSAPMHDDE
Sequence of PYL2-HAB1 (Q9CAJ0 whole entry partner, looked up): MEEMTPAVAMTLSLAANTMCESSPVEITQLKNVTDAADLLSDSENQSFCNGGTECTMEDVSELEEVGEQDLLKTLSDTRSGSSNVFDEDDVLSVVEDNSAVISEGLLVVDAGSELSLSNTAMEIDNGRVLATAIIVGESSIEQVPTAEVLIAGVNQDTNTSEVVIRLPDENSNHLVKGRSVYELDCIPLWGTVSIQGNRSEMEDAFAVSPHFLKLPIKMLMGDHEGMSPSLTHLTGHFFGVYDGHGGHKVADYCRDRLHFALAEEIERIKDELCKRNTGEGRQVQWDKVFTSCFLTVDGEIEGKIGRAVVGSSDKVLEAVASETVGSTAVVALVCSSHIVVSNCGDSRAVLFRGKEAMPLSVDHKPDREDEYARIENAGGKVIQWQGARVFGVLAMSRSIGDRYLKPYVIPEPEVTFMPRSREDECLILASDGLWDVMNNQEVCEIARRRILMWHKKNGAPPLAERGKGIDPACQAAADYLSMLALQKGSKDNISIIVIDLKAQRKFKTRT
Source text: (§1) The protein HAB1, a type 2 protein phosphatase (PP2C), is inhibited by PYR/PYL proteins in dependence of abscisic acid or other receptor agonists. The potency of a receptor agonists correlates with the level of inhibition of the PP2C, and therefore the IC50 (PYR1-HAB1) can be used to compare the relative activity of different chemical analogues. Since inhibition of PP2C correlates to inhibition of seed-germination and increase in plant water-use efficiency, it serves as a powerful tool to quantify biological potential of a chemical acting as an analogue of abscisic acid.
(§2) HAB1 and PYL proteins were expressed and purified as described in Park et al. ((2009) Science 324(5930):1068-1071), with minor modifications. To obtain GST-HAB1, the HAB1 cDNA was cloned into pGex-2T. Expression was conducted in BL21[DE3]pLysS host cells. Transformed cells were pre-cultured overnight, transferred to LB medium and cultured at 30° C. to culture A600 of ˜0.5.
(§3) The culture was then cooled on ice and MnCl2 added to 4 mM and IPTG added to 0.3 mM. After 16 hours incubation at 15° C., cells were harvested and recombinant proteins were purified on glutathione agarose as described in Park et al. To obtain 6×His-PYL receptor fusion proteins, expression constructs previously described by Okamoto et al. 2013, (PNAS 110(29): 12132-12137) were used. ABA receptors were expressed and purified as described above.
(§4) For the values shown in Table B5, PP2C activity assays using recombinant receptors and PP2Cs were carried out as follows: purified proteins were pre-incubated in 160 μl assay buffer containing 100 mM Tris-HCl-pH7.9, 100 mM NaCl, 3 μg bovine serum albumin, 0.1% 2-mercaptoethanol, 1 mM MnCl2 with ABA or agonists (compounds of the present invention) for 30 minutes at room temperature. Reactions were started by adding 40 μL of a reaction solution containing 25 mM 4-nitrophenyl phosphate in assay buffer after which absorbance measurements were immediately collected using a 405 nm on Wallac plate reader. Reactions contained 100 nM PP2C and 200 nM PYR/PYL proteins. […] For inferring IC50 values, calculations from receptor/PP2C assays containing different concentrations (ranging from 1 μM to 4 nM) were. The obtained dose response data was fit to a log (inhibitor) versus response-(variable slope) model using non-linear regression to infer the IC50s, using Graph Pad Prism 6.0.

PYR1-HAB1 = PYR1-HAB1 (Arabidopsis thaliana (Mouse-ear cress), UniProt O49686); assay: PP2C activity assay, PYR1-HAB1; assay type: biochemical; conditions: 100 nM PP2C, 200 nM PYR/PYL protein, 4-nitrophenyl phosphate substrate; read-out: IC50 of inhibition of PYR1-HAB1
Sequence of PYR1-HAB1 (O49686 whole entry, looked up): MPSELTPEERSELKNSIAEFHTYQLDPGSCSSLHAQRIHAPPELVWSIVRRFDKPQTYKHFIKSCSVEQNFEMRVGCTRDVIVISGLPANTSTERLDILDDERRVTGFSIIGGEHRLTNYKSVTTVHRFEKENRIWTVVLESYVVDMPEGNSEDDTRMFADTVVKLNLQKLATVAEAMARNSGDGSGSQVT
Sequence of PYR1-HAB1 (Q9CAJ0 whole entry partner, looked up): as the sequence (Q9CAJ0 whole entry partner, looked up) above
Source text: as §1, §2, §3, §4

[2] = tested on: corn plants (variety NK OCTET); assay: Water use (WU) of corn plants after foliar spray; assay type: in vivo; conditions: foliar spray at 500 μM, vs negative control; for Total % WU 0 to 2 DAA: cumulative
Protocol: Compounds were tested for their effect on reducing plant water use as follows. The compounds were applied by foliar spray to 12 day old corn plants (variety NK OCTET) grown in controlled environment plant growth chambers. All compounds were applied using an emulsifiable concentrate (EC) formulation that was diluted to the desired concentrations with water containing 0.4% of the adjuvant rape seed methyl ester. Plant water use during the day was assessed by repeated weighing of the pots in which the plants were grown before and after application of the compounds at the indicated times (expressed in days after application (DAA)). The water use data before application was used to correct any differences in water use arising due to non-treatment effects (e.g. due to differences in plant size). The untransformed water use values were subjected to an analysis of covariance, fitting the effect of treatment and using the baseline water use 1 day before application as a covariate. Application of the chemicals (0 DAA) takes place approximately between 8 to 9:30 a.m. WU is measured within day time (chamber light is on 6:00 to 20:00) at these timepoints: 0 DAA AM (10:30-12:50) and 0 DAA PM (14:00-19:50), 1 DAA AM (7:30-12:50) and 1 DAA PM (14:00-19:50) and 2 DAA AM (7:30-12:50). The cumulative total WU (0-2 DAA) is calculated by summing the WU data mentioned above.

[3] = tested on: corn plants (variety NK OCTET); assay: Water use (WU) of corn plants after foliar spray; assay type: in vivo; conditions: foliar spray at 500 μM, vs negative control
[4] = repeated experiment (Table B2), rate not given
[5] = 0 h, application rate 100 μM, read-out: % WU 0 DAA AM
[6] = 0 h, application rate 100 μM, read-out: % WU 0 DAA PM
[7] = 24 h, application rate 100 μM, read-out: % WU 1 DAA AM
[8] = 24 h, application rate 100 μM, read-out: % WU 1 DAA PM
[9] = 48 h, application rate 100 μM, read-out: % WU 2 DAA AM

Compound	% WU 2 DAA PM [1, 4]	Total % WU 0 to 2 DAA [1, 4]	IC50 (PYL2-HAB1)	IC50 (PYR1-HAB1)	Total % WU 0 to 2 DAA [2]	% WU 0 DAA AM [2]	% WU 0 DAA PM [2]	% WU 1 DAA AM [2]	% WU 1 DAA PM [2]	% WU 2 DAA AM [2]	% WU 2 DAA PM [3]	further results
CCCN1C(=O)CCc2cc(NS(=O)(=O)Cc3ccc(C)cc3)ccc21 [Quinabactin, quinabactin, reference compound]	−11%	−16%	262 nM	104 nM								% WU 0 DAA AM [1, 4]: −22%; % WU 0 DAA PM [1, 4]: −23%; % WU 1 DAA AM [1, 4]: −17%; % WU 1 DAA PM [1, 4]: −15%; % WU 2 DAA AM [1, 4]: −12%
CCCN1C(=O)CCc2cc(NS(=O)(=O)Cc3ccc(C4CC4)cc3)ccc21 [drawing 27]												change in vivo at 500 µM ([1]; 0 h, application rate 500 μM, read-out: % WU 0 DAA AM): -8.8%; change in vivo at 500 µM ([1]; 0 h, application rate 500 μM, read-out: % WU 0 DAA PM): -10.7%; change in vivo at 500 µM ([1]; 24 h, application rate 500 μM, read-out: % WU 1 DAA AM): -9.4%; change in vivo at 500 µM ([1]; 24 h, application rate 500 μM, read-out: % WU 1 DAA PM): -6.4%; change in vivo at 500 µM ([1]; 48 h, application rate 500 μM, read-out: % WU 2 DAA AM): -6.1%; Total 0 to 2 DAA ([1]; application rate 500 μM): −8.9%
CCN1C(=O)CC(C)c2cc(NS(=O)(=O)Cc3ccc(C4CC4)cc3)cc(F)c21 (stereo not drawn) [Compound 1.220, 1-(4-cyclopropylphenyl)-N-(1-ethyl-8-fluoro-4-methyl-2-oxo-3,4-dihydroquinolin-6-yl)methanesulfonamide]	−44.6%	−50.5%	16 nM	71 nM	−17.8%	−32.6%	−35.1%	−18.2%	−14.1%	−8.7%	−9%	
CCCN1C(=O)CC(C)c2cc(NS(=O)(=O)Cc3ccc(C4CC4)cc3)ccc21 (stereo not drawn) [Compound 1.179]			64 nM	82 nM								
CCCN1C(=O)CCc2cc(NS(=O)(=O)Cc3ccc(C4CC4)cc3)ccc21 [drawing 26]												change in vivo at 100 µM [1, 5]: -0.8%; change in vivo at 100 µM [1, 6]: -3.8%; change in vivo at 100 µM [1, 7]: -3%; change in vivo at 100 µM [1, 8]: -2.8%; change in vivo at 100 µM [1, 9]: -5.2%; Total 0 to 2 DAA ([1]; application rate 100 μM): −3.8%
CCN1C(=O)CC(C)c2cc(NS(=O)(=O)Cc3ccc(C4CC4)cc3)ccc21 (stereo not drawn) [Compound 1.178, 1-(4-cyclopropylphenyl)-N-(1-ethyl-4-methyl-2-oxo-3,4-dihydroquinolin-6-yl)methanesulfonamide]	−36.5%	−45.4%			−9.7%	−18.5%	−13%	−11.2%	−9.2%	−6.5%	−5.8%	
CCCN1C(=O)CCc2cc(NS(=O)(=O)Cc3ccc(C4CCC4)cc3)ccc21 [Compound 5.004, 1-(4-cyclobutylphenyl)-N-(2-oxo-1-propyl-3,4-dihydroquinolin-6-yl)methanesulfonamide]	3.9%	−3%			−4.9%	−8.9%	−8.8%	−5.6%	−5.9%	−1.7%	−2.3%	
CCCN1C(=O)CCc2cc(NS(=O)(=O)Cc3ccc(C4CC4)cc3)ccc21 [Compound 1.004, 1-(4-cyclopropylphenyl)-N-(2-oxo-1-propyl-3,4-dihydroquinolin-6-yl)methanesulfonamide]	−12.9%	−25%	177 nM	51 nM	−11.8%	−17.9%	−12.4%	−12.4%	−12.1%	−9.8%	−10.2%	
CCCN1C(=O)CCc2cc(NS(=O)(=O)Cc3ccc(C)cc3)ccc21 [drawing 25, reference compound]												change in vivo at 100 µM [1, 5]: -1.3%; change in vivo at 100 µM [1, 6]: -0.7%; change in vivo at 100 µM [1, 7]: -2.2%; change in vivo at 100 µM [1, 8]: -0.2%; change in vivo at 100 µM [1, 9]: -3.4%; Total 0 to 2 DAA ([1]; application rate 100 μM): −2.0%
CCCN1C(=O)CCc2cc(NS(=O)(=O)Cc3ccc(C4CC(=O)C4(C)C)cc3)ccc21 (stereo not drawn) [Compound 8.004, 1-[4-(2,2-dimethyl-3-oxo-cyclobutyl)phenyl]-N-(2-oxo-1-propyl-3,4-dihydroquinolin-6-yl)methanesulfonamide]	1%	−0.7%										
CCCN1C(=O)CCc2cc(NS(=O)(=O)Cc3ccc(C4CC4)cc3)cc(Cl)c21 [Compound 1.025, N-(8-chloro-2-oxo-1-propyl-3,4-dihydroquinolin-6-yl)-1-(4-cyclopropylphenyl)methanesulfonamide]	−13.6%	−22.1%	114 nM	83 nM								
CCCN1C(=O)CCc2cc(NS(=O)(=O)Cc3ccc(C4CC4)cc3)cc(F)c21 [Compound 1.214, 1-(4-cyclopropylphenyl)-N-(8-fluoro-2-oxo-1-propyl-3,4-dihydroquinolin-6-yl)methanesulfonamide]			130 nM	28 nM								
CCCN1C(=O)CCc2cc(NS(=O)(=O)Cc3ccc(C4CCCC4)cc3)ccc21 [Compound 9.004, 1-(4-cyclopentylphenyl)-N-(2-oxo-1-propyl-3,4-dihydroquinolin-6-yl)methanesulfonamide]	0.5%	−1.4%	> 1000 nM	97 nM								
